Experimental data taken from publication PMC11943723, “Synthesis and Biological Activity of Glycosyl Thiazolyl Disulfides Based on Thiacarpine, an Analogue of the Cytotoxic Alkaloid Polycarpine from the Ascidian Polycarpa aurata” (Marine Drugs, 2025).
Converted amounts (≈) assume the structure as drawn. Counter-ions that a name gives are not always drawn. Like-named read-outs stand apart in the source and are kept apart here.

Assays:
HeLa (cervical cancer) = assay: MTT cell viability assay, HeLa; assay type: cell-based, human; conditions: Homo sapiens, HeLa, 24 h, 24 h incubation, read-out: Cytotoxicity EC50, HeLa
Description: (§1) Human erythrocytes were purchased from the blood transfusion station Vladivostok. Human breast cancer cell lines MCF-7^HTB−22, and MDA-MB-231^CRM-HTB−26, liver hepatocellular carcinoma Hep G2^HB−8065, prostate adenocarcinoma PC-3^CRL−1435, cervical adenocarcinoma HeLa^CRM-CCL−2, and normal bronchial epithelial cells BEAS-2B ^CRL−3588 were received from ATCC (Manassas, VA, USA).
(§2) DMEM medium (Biolot, Russia) with 1% penicillin/streptomycin and 10% fetal bovine serum (FBS) (Biolot, Russia) was used for cultivation of Hep G2, PC-3, HeLa, and Beas-2b. MEM medium (Biolot, Russia) with 1% penicillin/streptomycin sulfate (Biolot, Russia) and FBS (Biolot, Russia) to a final concentration of 10% for MCF-7 and MDA-MB-231 cells.
(§3) The effect of the studied compounds on the viability of human cancer and normal cells was determined using the MTT (3-[4,5-dimethylthiazol-2-yl]-2,5 diphenyl tetrazolium bromide) assay. Briefly, 6 × 10^3 cells per well were seeded into 96-well plates and incubated for 24 h for adhesion, followed by incubation for 24 h with different concentrations of the substances. After incubation, the medium containing the test substances was replaced with 100 µL of fresh medium. Then, 10 μL of MTT (Sigma-Aldrich, Madison, WI, USA) reagent (5 mg/mL MTT in PBS) was added into the cells and the plates for additional 4 h. Thereafter, 100 µL of SDS-HCl solution (1 g SDS/10 mL dH2O/17 µL 6N HCl) was added to each well and incubated for 18 h. The absorbance of the converted formazan dye was measured using a Multiskan FC microplate photometer (Thermo Scientific, Waltham, MA, USA) at a wavelength of 570 nm. All experiments were performed in triplicate. Cytotoxic activity was expressed as a percentage of the cell viability.

[1] = tested on: Escherichia coli (VKPM B-7935); assay: Inhibition of biofilm formation (MTT); assay type: cell-based; conditions: 24 h
Protocol: (§4) Biofilm formation was performed according to the method described by Walencka et al., with minor modifications. The compounds were dissolved in dimethyl sulfoxide (DMSO) at a concentration of 10 mM and stored at −20 °C. Before the experiment, the solution of substances in DMSO was diluted with PBS at a concentration of 0.5–100.0 µM and added to the wells so that the concentration of DMSO in the culture medium was less than 1%. Biofilm formation was assessed in 96-well microplates in a liquid Mueller–Hinton nutrient medium. For S. aureus, E. coli, and C. albicans, a bacterial suspension of 10^6 CFU in 1 mL of medium was used, 90 μL was added to each well of the microplates and then incubated in a thermostatted shaker at 37 °C for 24 h. After incubation, the suspension of planktonic microorganisms was removed from the plate and washed with PBS. Next, 100 μL of PBS and 10 μL of MTT (3-(4,5-dimethylthiazol-2-yl)-2,5-diphenyltetrazolium bromide, MTT reagent, Sigma) stock solution (5 mg/mL) were added to the wells and incubated for 3 h at 37 °C. After incubation, all the solution was removed from the wells, 100 μL of DMSO was added, and the plate was shaken for 10 min until all formazan crystals had dissolved. The absorption was measured using a plate reader (Thermo Fisher Scientific, Waltham, MA, USA) at a wavelength of 570 nm. The activity of the substances was assessed by the change in optical density compared with that of the control. All experiments were performed in triplicate. Gentamicin (S. aureus and E. coli) and nitrofungin (C. albicans) were used as positive controls, and 1% DMSO in PBS was used as a negative control.

[2] = tested on: Staphylococcus aureus (ATCC 21027); assay: Antimicrobial activity, inhibition of microbial growth (optical density); assay type: cell-based; conditions: 18 h, OD 620 nm, read-out: Inhibition of Microbial Growth MIC50, S. aureus
Protocol: (§5) The antimicrobial activity of the compounds was determined against Gram-positive bacteria Staphylococcus aureus (ATCC 21027), Gram-negative bacteria Escherichia coli (VKPM B-7935), and yeast-like fungi Candida albicans (KMM 455) (all test strains were obtained from the Collection of Marine Microorganisms KMM PIBOC FEB RAS) in liquid nutrient media. Test cultures of S. aureus, E. coli, and C. albicans were grown in Petri dishes on a solid nutrient medium (Mueller–Hinton broth with the addition of agar—16.0 g/L) at 37 °C for 24 h. The antimicrobial activity of the compounds was determined by the change in optical density and expressed as the percentage of bacterial inhibition at different concentrations of substances added to the well of the microorganism suspension, compared to the control. The compounds were dissolved in dimethyl sulfoxide (DMSO) at a concentration of 10 mM and stored at −20 °C. Before the experiment, the solution of substances in DMSO was diluted with PBS at a concentration of 0.5–100.0 µM and added to the wells so that the concentration of DMSO in the culture medium was less than 1%. Antimicrobial activity was determined in 96-well microplates in a liquid Mueller–Hinton nutrient medium. For S. aureus, E. coli, and C. albicans, a bacterial suspension of 10^6 CFU in 1 mL of the media was used, 90 μL was added to each well of the microplates and then incubated in a thermostatted shaker at 37 °C for 18 h. Inhibition of microorganism growth was assessed by measuring the optical density at 620 nm using a microplate reader (Thermo Fisher Scientific, Waltham, MA, USA) after preliminary shaking of the plates for 10 min. All experiments were performed in triplicate. Gentamicin (S. aureus and E. coli) and nitrofungin (C. albicans) were used as positive controls, and 1% DMSO in PBS was used as a negative control.

[3] = tested on: Candida albicans (KMM 455); assay: as above; assay type: cell-based; conditions: 18 h, OD 620 nm, read-out: Inhibition of Microbial Growth MIC50, C. albicans
Protocol: as §5

[4] = tested on: Escherichia coli (VKPM B-7935); assay: as above; assay type: cell-based; conditions: 18 h, OD 620 nm, read-out: Inhibition of Microbial Growth MIC50, E. coli
Protocol: as §5

[5] = tested on: MDA-MB-231 (triple-negative breast cancer); assay: MTT cell viability assay, MDA-MB-231; assay type: cell-based, human; conditions: Homo sapiens, MDA-MB-231, 24 h, 24 h incubation, read-out: Cytotoxicity EC50, MDA-MB-231 (TNBC)
Description: as §1, §2, §3

[6] = tested on: Hep G2 (hepatocellular carcinoma); assay: MTT cell viability assay, Hep G2; assay type: cell-based; conditions: Homo sapiens, HepG2, 24 h incubation, read-out: Cytotoxicity EC50, Hep G2
Description: as §1, §2, §3

Human erythrocytes = assay: Hemolytic activity (destruction of erythrocyte membranes); assay type: cell-based
Description: as §1

[7] = MTT cell viability assay, BEAS-2B normal cells; assay type: cell-based; conditions: human, BEAS-2B normal bronchial epithelial cells, 24 h incubation, read-out: Cytotoxicity EC50, BEAS 2B
Description: as §1, §2, §3

[8] = tested on: Staphylococcus aureus (ATCC 21027); assay: Inhibition of biofilm formation (MTT); assay type: cell-based; conditions: 24 h
Protocol: as §4

[9] = tested on: Candida albicans (KMM 455); assay: Inhibition of biofilm formation (MTT); assay type: cell-based; conditions: 24 h
Protocol: as §4

HeLa cells = assay: Colony formation (clonogenic) assay; assay type: cell-based; conditions: Homo sapiens, 336 h, 14 days
Protocol: The effect of the test compounds on HeLa cell proliferation was analyzed using a clonogenic assay. Briefly, HeLa cells were cultured in 6-well plates at a density of 1 × 10^2 cells per well, and compounds were added at concentrations of 5 or 10 μM. Untreated culture medium was used as a control. […] Before fixation and staining, the medium was removed and the cells were washed twice with PBS. The colonies were then fixed with methanol for 25 min and stained with 0.5% crystal violet for 25 min at room temperature. The plates were then washed with water and air-dried.

[10] = Staphylococcus aureus, ATCC21027

Compound | EC50 (HeLa (cervical cancer)) | Inhibition of Biofilm Formation MIC50, E. coli [1] | MIC50 [2, 10] | MIC50 ([3]; Candida albicans, KMM455) | MIC50 ([4]; Escherichia coli) | EC50 [5] | EC50 [6] | Hemolytic activity, erythrocytes (Human erythrocytes) | EC50 at 24 h [7] | Inhibition of Biofilm Formation MIC50, S. aureus [8] | Inhibition of Biofilm Formation MIC50, C. albicans [9] | inhibition at 5 µM (HeLa cells; 5 µM, read-out: Colony growth inhibition) | inhibition at 10 µM (HeLa cells) | MIC50 [2] | MIC50 [3] | MIC50 [4]
Nc1nc(-c2ccc(Cl)cc2)c(SS[C@@H]2O[C@H](CO)[C@@H](O)[C@H](O)[C@H]2O)s1 [Compound 5d, 5-[(β-D-glucopyranosyl)disulfanyl]-2-amino-4-(4-clorophenyl)thiazole hydrochloride] | > 25 µM | 6.00 µM | 2.5 ± 0.2 µM | 3.1 ± 2.3 µM | 6.6 ± 0.5 µM | > 25 µM | > 25 µM | > 25 µM | > 25 µM |  |  |  |  |  |  | 
CC(=O)O[C@@H]1[C@@H](OC(C)=O)[C@H](SSc2sc(N)nc2-c2ccc(Cl)cc2)OC[C@H]1OC(C)=O [Compound 4i, 5-[(2,3,4-Tri-O-acetyl-β-D-xylopyranosyl)disulfanyl]-2-amino-4-(4-chlorophenyl)thiazole] | > 25 µM |  | 3.1 ± 0.3 µM (≈ 1.65 µg/mL) | 2.8 ± 0.3 µM (≈ 1.49 µg/mL) | 8.7 ± 0.9 µM (≈ 4.64 µg/mL) | > 25 µM | > 25 µM | > 25 µM | > 25 µM | 6.25 µM | 4.08 µM |  |  |  |  | 
COc1ccc(-c2nc(N)sc2SS[C@@H]2OC[C@@H](OC(C)=O)[C@H](OC(C)=O)[C@H]2OC(C)=O)cc1 [Compound 4f, 5-[(2,3,4-Tri-O-acetyl-β-D-xylopyranosyl)disulfanyl]-2-amino-4-(4-methoxyphenyl)thiazole] | 20.4 µM |  | 32.1 ± 3.7 µM (≈ 17 µg/mL) | 34.1 ± 2.1 µM (≈ 18 µg/mL) | 39.5 ± 4 µM (≈ 20.9 µg/mL) | 22.9 µM | 22.6 µM |  | 23.5 µM |  |  | ~16% | 78% |  |  | 
CC(=O)OC[C@H]1O[C@@H](SSc2sc(N)nc2-c2ccc(Cl)cc2)[C@H](OC(C)=O)[C@@H](OC(C)=O)[C@@H]1OC(C)=O [Compound 4d, 5-[(2,3,4,6-Tetra-O-acetyl-β-D-glucopyranosyl)disulfanyl]-2-amino-4-(4-chlorophenyl)thiazole] | > 25 µM |  | 19.2 ± 2 µM (≈ 11.6 µg/mL) | 6.9 ± 0.9 µM (≈ 4.18 µg/mL) | 16.1 ± 1.7 µM (≈ 9.74 µg/mL) | 22.9 µM | > 25 µM |  | 14.1 µM |  | 7.03 µM |  |  |  |  | 
Cl.Nc1nc(-c2ccc(Br)cc2)c(SS[C@@H]2OC[C@@H](O)[C@H](O)[C@H]2O)s1 [Compound 5h, 5-[(β-D-xylopyranosyl)disulfanyl]-2-amino-4-(4-bromophenyl)thiazole hydrochloride] | > 25 µM | 8.92 µM | 1.2 ± 0.1 µM | 1.6 ± 0.1 µM | 3.1 ± 0.3 µM | > 25 µM | > 25 µM | > 25 µM | 23.5 µM |  | 3.21 µM |  |  | 1.15 µM | 1.56 µM | 3.08 µM
Cl.Nc1nc(-c2ccc(Br)cc2)c(SS[C@@H]2O[C@H](CO)[C@@H](O)[C@H](O)[C@H]2O)s1 [Compound 5c, 5-[(β-D-glucopyranosyl)disulfanyl]-2-amino-4-(4-bromophenyl)thiazole hydrochloride] | > 25 µM |  | 3 ± 0.2 µM | 1.6 ± 0.2 µM | 5 ± 0.5 µM | > 25 µM | > 25 µM | > 25 µM | > 25 µM |  | 8.69 µM |  |  |  |  | 
Cc1ccc(-c2nc(N)sc2SS[C@@H]2OC[C@@H](O)[C@H](O)[C@H]2O)cc1.Cl [Compound 5j, 5-[(β-D-xylopyranosyl)disulfanyl]-2-amino-4-(p-tolyl)thiazole hydrochloride] | > 25 µM | 5.62 µM | 34.5 ± 3 µM | 15.9 ± 1.1 µM | 38 ± 3 µM | > 25 µM | > 25 µM |  | > 25 µM |  |  |  |  |  |  | 
CC(=O)OC[C@H]1O[C@@H](SSc2sc(N)nc2-c2ccc(Br)cc2)[C@H](OC(C)=O)[C@@H](OC(C)=O)[C@@H]1OC(C)=O [Compound 4c, 5-[(2,3,4,6-Tetra-O-acetyl-β-D-glucopyranosyl)disulfanyl]-2-amino-4-(4-bromophenyl)thiazole] | 19.4 µM | 8.04 µM | 2.3 ± 0.3 µM (≈ 1.49 µg/mL) | 7.1 ± 0.7 µM (≈ 4.61 µg/mL) | 6.9 ± 0.5 µM (≈ 4.48 µg/mL) | 21.7 µM | 24.3 µM | > 25 µM | 15.5 µM | 7.94 µM |  |  | 76% |  |  | 
